pIC50: −log10 of the molar value. Calls of active or inactive are those of the source. The calls are words filed in the database; no cut-off is given here.
Columns and labels:
KYSE-150 cell line = assay: Antiproliferative activity against human KYSE-150 cell line assessed as inhibition of cell growth incubated for 48 hrs by CCK-8 reagent based spectrophotometric analysis; format: functional; settings: KYSE-150, 48 h
HeLa = assay: Antiproliferative activity against human HeLa cells assessed as inhibition of cell growth incubated for 48 hrs by CCK-8 reagent based spectrophotometric analysis; format: functional
HepG2 = assay: Antiproliferative activity against human HepG2 cells assessed as inhibition of cell growth incubated for 48 hrs by CCK-8 reagent based spectrophotometric analysis; format: functional; settings: HepG2, 48 h
MCF7 = assay: Antiproliferative activity against human MCF7 cells assessed as inhibition of cell growth incubated for 48 hrs by CCK-8 reagent based spectrophotometric analysis; format: functional; settings: MCF7, 48 h
PC-3 = assay: Antiproliferative activity against human PC-3 cells assessed as inhibition of cell growth incubated for 48 hrs by CCK-8 reagent based spectrophotometric analysis; format: functional; settings: PC-3, 48 h
A549 = assay: Antiproliferative activity against human A549 cells assessed as inhibition of cell growth incubated for 48 hrs by CCK-8 reagent based spectrophotometric analysis; format: functional; settings: A549, 48 h
SMMC-7721 [1] = assay: Induction of apoptosis in human SMMC-7721 cells assessed as viable cells at 5 uM incubated for 24 hrs by Annexin V-FITC and propidium iodide staining based flow cytometric analysis (reference value: 99 %); format: functional; settings: read-out: Activity
SMMC-7721 [2] = assay: Induction of apoptosis in human SMMC-7721 cells assessed as early apoptotic cells at 10 uM incubated for 24 hrs by Annexin V-FITC and propidium iodide staining based flow cytometric analysis (reference value: 0.28 %); format: functional
SMMC-7721 [3] = assay: Induction of apoptosis in human SMMC-7721 cells assessed as early apoptotic cells at 20 uM incubated for 24 hrs by Annexin V-FITC and propidium iodide staining based flow cytometric analysis (reference value: 0.28 %); format: functional
SMMC-7721 [4] = assay: Induction of apoptosis in human SMMC-7721 cells assessed as necrotic cells at 5 uM incubated for 24 hrs by Annexin V-FITC and propidium iodide staining based flow cytometric analysis (reference value: 0.61 %); format: functional
SMMC-7721 [5] = assay: Induction of apoptosis in human SMMC-7721 cells assessed as late apoptotic cells at 10 uM incubated for 24 hrs by Annexin V-FITC and propidium iodide staining based flow cytometric analysis (reference value: 0.14 %); format: functional
SMMC-7721 [6] = assay: Induction of apoptosis in human SMMC-7721 cells assessed as late apoptotic cells at 20 uM incubated for 24 hrs by Annexin V-FITC and propidium iodide staining based flow cytometric analysis (reference value: 0.14 %); format: functional
SMMC-7721 [7] = assay: Induction of apoptosis in human SMMC-7721 cells assessed as necrotic cells at 20 uM incubated for 24 hrs by Annexin V-FITC and propidium iodide staining based flow cytometric analysis (reference value: 0.61 %); format: functional
SMMC-7721 [8] = assay: Induction of apoptosis in human SMMC-7721 cells assessed as viable cells at 15 uM incubated for 24 hrs by Annexin V-FITC and propidium iodide staining based flow cytometric analysis (reference value: 99.2 %); format: functional; settings: read-out: Activity
SMMC-7721 [9] = assay: Induction of apoptosis in human SMMC-7721 cells assessed as viable cells at 15 uM incubated for 24 hrs in presence of 3-MA by Annexin V-FITC and propidium iodide staining based flow cytometric analysis (reference value: 99.2 %); format: functional; settings: read-out: Activity
SMMC-7721 [10] = assay: Induction of apoptosis in human SMMC-7721 cells assessed as viable cells at 15 uM incubated for 24 hrs in presence of zVAD by Annexin V-FITC and propidium iodide staining based flow cytometric analysis (reference value: 99.2 %); format: functional; settings: read-out: Activity
SMMC-7721 [11] = assay: Induction of apoptosis in human SMMC-7721 cells assessed as early apoptotic cells at 15 uM incubated for 24 hrs in presence of 3-MA by Annexin V-FITC and propidium iodide staining based flow cytometric analysis (reference value: 0.07 %); format: functional
SMMC-7721 [12] = assay: Induction of apoptosis in human SMMC-7721 cells assessed as early apoptotic cells at 15 uM incubated for 24 hrs in presence of zVAD by Annexin V-FITC and propidium iodide staining based flow cytometric analysis (reference value: 0.07 %); format: functional
SMMC-7721 [13] = assay: Induction of apoptosis in human SMMC-7721 cells assessed as early apoptotic cells at 15 uM incubated for 24 hrs in presence of Nec1 by Annexin V-FITC and propidium iodide staining based flow cytometric analysis (reference value: 0.07 %); format: functional
SMMC-7721 [14] = assay: Induction of apoptosis in human SMMC-7721 cells assessed as late apoptotic cells at 15 uM incubated for 24 hrs by Annexin V-FITC and propidium iodide staining based flow cytometric analysis (reference value: 0.09 %); format: functional
SMMC-7721 [15] = assay: Induction of apoptosis in human SMMC-7721 cells assessed as late apoptotic cells at 15 uM incubated for 24 hrs in presence of zVAD by Annexin V-FITC and propidium iodide staining based flow cytometric analysis (reference value: 0.09 %); format: functional
SMMC-7721 [16] = assay: Induction of apoptosis in human SMMC-7721 cells assessed as late apoptotic cells at 15 uM incubated for 24 hrs in presence of Nec1 by Annexin V-FITC and propidium iodide staining based flow cytometric analysis (reference value: 0.09 %); format: functional
SMMC-7721 [17] = assay: Induction of apoptosis in human SMMC-7721 cells assessed as necrotic cells at 15 uM incubated for 24 hrs in presence of 3-MA by Annexin V-FITC and propidium iodide staining based flow cytometric analysis (reference value: 0.65 %); format: functional
SMMC-7721 [18] = assay: Induction of apoptosis in human SMMC-7721 cells assessed as necrotic cells at 15 uM incubated for 24 hrs in presence of zVAD by Annexin V-FITC and propidium iodide staining based flow cytometric analysis (reference value: 0.65 %); format: functional
SMMC-7721 [19] = assay: Induction of apoptosis in human SMMC-7721 cells assessed as necrotic cells at 15 uM incubated for 24 hrs in presence of Nec1 by Annexin V-FITC and propidium iodide staining based flow cytometric analysis (reference value: 0.65 %); format: functional
SMMC-7721 [20] = assay: Induction of apoptosis in human SMMC-7721 cells at 10 uM incubated for 24 hrs by Annexin V-FITC and propidium iodide staining based flow cytometric analysis relative to control; format: functional
SMMC-7721 [21] = assay: Induction of apoptosis in human SMMC-7721 cells at 20 uM incubated for 24 hrs by Annexin V-FITC and propidium iodide staining based flow cytometric analysis relative to control; format: functional
SMMC-7721 [22] = assay: Induction of autophagy in human SMMC-7721 cells assessed as cell structure destruction at 10 uM incubated for 24 hrs by TEM analysis; format: functional, cell-based
SMMC-7721 [23] = assay: Induction of autophagy in human SMMC-7721 cells assessed as appearance of sparse matrix at 10 uM incubated for 24 hrs by TEM analysis; format: functional, cell-based
SMMC-7721 [24] = assay: Induction of autophagy in human SMMC-7721 cells assessed as formation of autolysosomes at 10 uM incubated for 24 hrs by TEM analysis; format: functional, cell-based
SMMC-7721 [25] = assay: Induction of autophagy in human SMMC-7721 cells assessed as formation of autophagosome at 10 uM incubated for 24 hrs by TEM analysis; format: functional, cell-based
[26] = Toxicity in Zebrafish embryo assessed as reduction in survival rate at upto 100 uM incubated for 48 hrs by microscopic analysis; parameters: species or system Danio rerio; settings: in vivo

Compound | pIC50 (KYSE-150 cell line) | pIC50 (HeLa) | pIC50 (HepG2) | pIC50 (MCF7) | pIC50 (PC-3) | pIC50 (A549) | viability at 5 µM (SMMC-7721 [1]) | Activity (SMMC-7721 [2]) | Activity (SMMC-7721 [3]) | Activity (SMMC-7721 [4]) | Activity (SMMC-7721 [5]) | Activity (SMMC-7721 [6]) | Activity (SMMC-7721 [7]) | viability at 15 µM (SMMC-7721 [8]) | viability at 15 µM (SMMC-7721 [9]) | viability at 15 µM (SMMC-7721 [10]) | Activity (SMMC-7721 [11]) | Activity (SMMC-7721 [12]) | Activity (SMMC-7721 [13]) | Activity (SMMC-7721 [14]) | also measured
C=C(C)[C@@H]1CC[C@]2(C(=O)OC)CC[C@]3(C)[C@H](CC[C@@H]4[C@@]5(C)C[C@@H](Cc6cn([C@H]7C[C@H](n8cc(C)c(O)nc8=O)O[C@@H]7CO)nn6)C(=O)C(C)(C)[C@@H]5CC[C@]43C)[C@@H]12 | 5.25 | 5.22 | 5.02 | 5.01 | 5.00 | 4.92 | 98.4% | 0.48% | 0.089% | 0.56% | 6.31% | 18.9% | 23% | 68.2% | 91.6% | 87.9% | 0.23% | 0.04% | 0.19% | 15.2% | Activity (SMMC-7721 [15]): 2.77%; Activity (SMMC-7721 [16]): 10.8%; Activity (SMMC-7721 [17]): 1.77%; Activity (SMMC-7721 [18]): 9.33%; Activity (SMMC-7721 [19]): 5.17%; Activity (SMMC-7721 [20]): 0.54%; Activity (SMMC-7721 [21]): 0.54%; Activity (SMMC-7721 [22]): Active; Activity (SMMC-7721 [23]): Active; Activity (SMMC-7721 [24]): Active; Activity (SMMC-7721 [25]): Active; Activity [26]: Non-Toxic
C=C(C)[C@@H]1CC[C@]2(C(=O)OC)CC[C@]3(C)[C@H](CC[C@@H]4[C@@]5(C)C[C@@H](Cc6cn([C@]7(CO)O[C@@H](n8ccc(O)nc8=O)[C@@H](F)[C@@H]7O)nn6)C(=O)C(C)(C)[C@@H]5CC[C@]43C)[C@@H]12 | 4.98 | 4.93 | 4.63 | 4.73 | 4.64 | 4.75 | 99% | 0.35% | 0.43% | 0.69% | 0.78% | 17.5% | 19.8% | 72.8% | 86.2% | 82% | 0.05% | 0.03% | 0.23% | 11.4% | Activity (SMMC-7721 [15]): 8.65%; Activity (SMMC-7721 [16]): 9.13%; Activity (SMMC-7721 [17]): 11.2%; Activity (SMMC-7721 [18]): 9.3%; Activity (SMMC-7721 [19]): 3.24%; Activity (SMMC-7721 [20]): 0.42%; Activity (SMMC-7721 [21]): 0.42%; Activity (SMMC-7721 [22]): Active; Activity (SMMC-7721 [23]): Active; Activity (SMMC-7721 [24]): Active; Activity (SMMC-7721 [25]): Active; Activity [26]: Non-Toxic
